Data taken from US20070049585A1, “BENZAMIDE AND BENZOATE ANTI-HIV COMPOUNDS” (priority 2004, published 2007).
“Also recorded” adds a separate entry of the source. Read-outs that look alike come from different tables or passages of the source.

What was measured:
[1] = tested on: HIV MDR 769 strain; experiment: Inhibition of multi-drug resistant HIV MDR 769 strain replication in HeLa cells, without pre-medication; type: cell-based
Excerpt: (§1) In order to study the viral replication in vitro, the GenPhar (Mt. Pleasant, S.C.) AV-Finder™-HIV Drug Discovery Assay was used, that consists of two components: (1) a cloned, continuous-passage HeLa cell line containing an HIV-1 tat-activated molecular switch and a Green Fluorescent Protein reporter gene and (2) a recombinant adenovirus (rAd) vector containing the genes for all three of the HIV-1 receptor/co-receptors (CD4, CXCR4, and CCR5) to transduce into HeLa cells and convert them into highly susceptible HIV-1 indicator cells for use in the assay. The indicator cells over-express the HIV-1 receptor genes and are readily infected with any HIV-1 strain or isolate. All HIV-1 strains tested thus far, regardless of co-receptor preference, and all subtypes or clades of HIV-1 will infect these indicator cells. Infected cells fluoresce brightly so that the inhibition of virus replication by potential antiviral drugs can be readily detected and quantified using standard laboratory plate reader technology.
(§2) Detector plates are set up at day 1 by adding HeLa cells (3000/well) to the adenovirus AD-3R in DMEM containing CCS in 96-well plates and to incubate at 37° C. under 95% humidity and 5% CO2 for 2 days. […] At day 4, the medium was replaced by fresh medium containing the corresponding concentration of the compounds of interest. The infectivity was assessed by measuring the fluorescence on each well at day 7 ([…]). […] At day 5, the medium was replaced by fresh medium containing the corresponding concentration of compounds of interest and the infectivity was assessed by measuring the fluorescence on each well at day 8. Results are expressed as percentage of inhibition of the viral replication.

[2] = tested on: HeLa cells; experiment: MTT cytotoxicity assay (mitochondrial integrity); type: cell-based, human
Procedure: Following the above described cell treatment protocol, the levels of cellular 3-(4,5-dimethylthiazol-2-yl)-2,5-diphenyl tetrazolium bromide (MTT) reduction, a measure of mitochondrial integrity, were determined in order to examine whether the compounds tested were cytotoxic.

[3] = tested on: HIV-1 IIIB; experiment: AV-Finder-HIV Drug Discovery Assay: inhibition of HIV-1 IIIB replication in HeLa indicator cells (GFP fluorescence); type: cell-based
Excerpt: as §1, with “All HIV-1 strains tested thus far, regardless of co-receptor preference, and all subtypes or clades of HIV-1 will infect these indicator cells.” left out
as §2
Procaine HCl was used either alone dissolved in water (SP01) or in an Anticort-like formulation (SP01A) containing zinc sulfate heptahydrate and ascorbic acid at the ratio of about 27-107/1/1.3-2.0 (for example 200 mg procaine HCl with 7.5 mg of zinc sulfate heptahydrate and 12.5 mg of ascorbic acid; Xu, J. et al. J Pharmacol. Exper. Ther. 2003 307:1148-1157) (Samaritan Pharmaceuticals).

In the case of `CCN(CC)CCNC(=O)c1ccc(N)cc1` [SP100, procainamide], the “effect on HIV MDR 769 strain replication” value [1] is reported as “effectively blocked”.
For `O=c1[nH]cnc2c1ncn2[C@H]1CC[C@@H](CO)O1` [ddI], the IC50 [2] was 89 µM and the “inhibition of viral replication (strongest inhibition)” value ([3]; no pre-medication, 0.01 μM) was 26.37±26.11%.
For `CCN(CC)CCOC(=O)c1ccc(N)cc1` [SP01, 4-aminobenzoic acid 2-(diethylamino)ethyl ester], the “cell toxicity by MTT cytotoxicity assay” value ([2]; all concentrations tested, up to 100 μM) was “devoid of cell toxicity”, the “inhibition of HIV replication” value ([3]; 48 hours pretreatment, all concentrations tested) was 75% and the “efficacy in reducing HIV-1 IIIB replication compared with AZT, ddI or 3TC” value ([3]; human cells) was “efficacy higher than AZT, ddI or 3TC”. For the same compound, the “efficacy of inhibition of HIV-1 IIIB viral replication compared with 3TC” value ([3]; no pre-medication, concentrations up to 0.1 μM) was “higher efficacy than the classical antiviral agent 3TC”, the “effect on HIV MDR 769 strain replication” value [1] was “effectively blocked” and the “effect on HIV MDR 769 strain replication” value ([1]; concentrations higher than 1 nM) was “not effective”. The “inhibition of HIV MDR 769 viral replication” value ([1]; concentrations up to 1 nM) was 75%.
`Nc1ccn([C@@H]2CS[C@H](CO)O2)c(=O)n1` [3TC] was tested, and the “inhibition of viral replication reached (maximal)” value ([3]; no pre-medication, dose-dependent, maximal concentrations) was 90%.
With `Cc1cn([C@H]2C[C@H](N=[N+]=[N-])[C@@H](CO)O2)c(=O)[nH]c1=O` [AZT] the IC50 [2] was 161 µM, the “inhibition of the replication at the peak concentration” value ([3]; 24 hours pre-medication, 30 pM) was less than 30% and the IC50 ([3]; 48 hours pretreatment) was 0.03 µM. For the same compound, the “effect on HIV MDR 769 strain replication” value [1] was “ineffective; also recorded: not effective”.
